Experimental data published in paper PMC4220977, “Enzyme–adenylate structure of a bacterial ATP-dependent DNA ligase with a minimized DNA-binding surface” (Acta Crystallographica Section D: Biological Crystallography, 2014).

B1: Psy-Lig (Psychromonas sp. SP041) (protein)
chain: QPPPIQLATNYRQDIDVTQYYVSEKLDGIRAYWNGHQLISKQGNIFTAPTWFIASFPTTAMDGELWIARQQFETVSGIARTQDNQNEQWKQIKFMIFDLPKSTVSFEQRINKMQTLVTDTNSPYLQMIEQQKIPNTVALFDLLNKVVMGKGEGLMLHHQDALYQTKRSRDLMKLKKFEDAEATVIAYLPGKGKYEGLLGAILVKNEEGVTFKIGSGFSDEERSTPPPIGSLITYRFTGKTNNNIPRFASFVRIRVIY
notes: mature protein, 40-residue periplasmic leader removed (cleavage Ala40/Gln41), 257 residues; N-terminal His tag and TEV site, vector pHMGWA, expressed in E. coli; pre-adenylated with ATP; SeMet form crystallised

Key:
Psy-Lig = target: T1, Psy-Lig (Psychromonas sp. SP041, UniProt A0ACD6BAT9); assay: X-ray crystal structure, […] Å (SeMet protein); format: binding; settings: covalent; phosphoamide bond to Lys25 side chain (mature numbering), enzyme-adenylate intermediate formed from ATP; active site
T1 construct: mature protein, 40-residue periplasmic leader removed (cleavage Ala40/Gln41), 257 residues; N-terminal His tag and TEV site, vector pHMGWA, expressed in E. coli; pre-adenylated with ATP; SeMet form crystallised

[1] = substrate: Nc1ncnc2c1ncn2[C@@H]1O[C@H](COP(=O)(O)OP(=O)(O)OP(=O)(O)O)[C@@H](O)[C@H]1O; assay: molecular beacon fluorescence nick-sealing assay, Michaelis-Menten fit; format: biochemical, Psychromonas sp. SP041; settings: 300 nM nicked ds-DNA beacon, 2.0 nM enzyme, 10 mM MgCl2, 100 mM NaCl, 1 mM DTT, 50 mM Tris pH 8.0, 30 °C, ATP 0-50 µM

Row | Molecule | X-ray crystal structure, 1.65 Å (SeMet protein) (Psy-Lig) | Km [1] [µM]
1 | Nc1ncnc2c1ncn2[C@@H]1O[C@H](COP(=O)(O)O)[C@@H](O)[C@H]1O [AMP] | AMP bound in the active site was clear in the observed electron density, covalently linked | –
2 | B1 | – | 3.8 ± 0.7
